Source: ChEMBL document CHEMBL5346910, “N-sulfonyl peptide-hybrids as a new class of dengue virus protease inhibitors” (Eur J Med Chem, 2023)

Experiments:
[1] = molecular target: Genome polyprotein (dengue virus type 2) (UniProt P29990); assay: Inhibition of DENV-2 NS2B-NS3 protease at 50 uM by biochemical enzymatic assay relative to control
[2] = molecular target: T1, Genome polyprotein (dengue virus type 2, UniProt P29990); assay: Inhibition of DENV-2 NS2B-NS3 protease by biochemical enzymatic assay
[3] = molecular target: Genome polyprotein (West Nile virus) (UniProt P06935); assay: Inhibition of West Nile virus NS2B-NS3 protease at 50 uM by biochemical enzymatic assay relative to control
[4] = molecular target: T2, Genome polyprotein (West Nile virus, UniProt P06935); assay: Inhibition of West Nile virus NS2B-NS3 protease by biochemical enzymatic assay
[5] = molecular target: Prothrombin (Homo sapiens) (UniProt P00734); assay: Inhibition of Thrombin (unknown origin) at 25 uM by biochemical assay relative to control
[6] = molecular target: T3, Trypsin (Homo sapiens, UniProt P07477+P07478+P35030); assay: Inhibition of trypsin (unknown origin) at 50 uM by biochemical assay relative to control; assay type: protein assay
[7] = Cytotoxicity against human HeLa cells by CellTiter-Blue assay; assay type: toxicity, cell-based
[8] = Metabolic stability in rat liver microsomes measured for 120 mins by UV-based HPLC analysis; assay type: ADME, Microsome; conditions: 2 h
[9] = Metabolic stability in rat liver microsomes assessed as parent compound remaining measured for 120 mins by UV-based HPLC analysis; assay type: ADME, Microsome; conditions: read-out: Stability
[10] = molecular target: T3, Trypsin; assay: Stability of the compound assessed as trypsin (unknown origin) mediated compound degradation incubated for 60 mins by UV-based HPLC analysis; assay type: ADME, protein assay; conditions: 1 h
[11] = Stability of the compound assessed as alpha-chymotrypsin (unknown origin) mediated compound degradation incubated for 60 mins by UV-based HPLC analysis; assay type: ADME; conditions: human, 1 h
[12] = molecular target: T1, Genome polyprotein; assay: Competitive inhibition of DENV-2 NS2B-NS3 protease assessed as inhibition constant by Cheng-Prusoff plot analysis
[13] = molecular target: T2, Genome polyprotein; assay: Inhibition of West Nile virus NS2B-NS3 protease assessed as inhibition constant

T2 sequence (P06935 1371-1501 limits assumed): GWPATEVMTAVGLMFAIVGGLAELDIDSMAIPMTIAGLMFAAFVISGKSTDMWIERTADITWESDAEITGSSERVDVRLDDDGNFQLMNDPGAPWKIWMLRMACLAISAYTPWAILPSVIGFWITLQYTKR
T2 sequence (P06935 1502-2120 limits assumed): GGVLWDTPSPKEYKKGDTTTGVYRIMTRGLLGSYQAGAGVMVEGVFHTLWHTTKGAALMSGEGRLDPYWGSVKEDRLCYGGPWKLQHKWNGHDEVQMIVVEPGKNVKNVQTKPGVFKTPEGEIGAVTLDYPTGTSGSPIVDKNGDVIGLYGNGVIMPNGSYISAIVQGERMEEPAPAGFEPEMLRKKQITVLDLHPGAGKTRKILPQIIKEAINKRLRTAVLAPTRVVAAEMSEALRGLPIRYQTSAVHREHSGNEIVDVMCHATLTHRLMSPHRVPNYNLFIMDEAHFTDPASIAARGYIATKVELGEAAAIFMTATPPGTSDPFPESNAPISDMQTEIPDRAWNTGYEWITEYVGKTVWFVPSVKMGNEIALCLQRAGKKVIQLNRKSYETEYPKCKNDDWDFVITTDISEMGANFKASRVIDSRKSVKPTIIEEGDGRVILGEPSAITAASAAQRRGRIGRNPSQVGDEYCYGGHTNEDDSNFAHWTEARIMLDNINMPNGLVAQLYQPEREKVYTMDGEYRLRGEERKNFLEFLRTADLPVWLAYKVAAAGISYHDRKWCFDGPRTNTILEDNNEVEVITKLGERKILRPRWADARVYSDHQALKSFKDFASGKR
Sequence of Genome polyprotein (West Nile virus) (P06935 whole entry): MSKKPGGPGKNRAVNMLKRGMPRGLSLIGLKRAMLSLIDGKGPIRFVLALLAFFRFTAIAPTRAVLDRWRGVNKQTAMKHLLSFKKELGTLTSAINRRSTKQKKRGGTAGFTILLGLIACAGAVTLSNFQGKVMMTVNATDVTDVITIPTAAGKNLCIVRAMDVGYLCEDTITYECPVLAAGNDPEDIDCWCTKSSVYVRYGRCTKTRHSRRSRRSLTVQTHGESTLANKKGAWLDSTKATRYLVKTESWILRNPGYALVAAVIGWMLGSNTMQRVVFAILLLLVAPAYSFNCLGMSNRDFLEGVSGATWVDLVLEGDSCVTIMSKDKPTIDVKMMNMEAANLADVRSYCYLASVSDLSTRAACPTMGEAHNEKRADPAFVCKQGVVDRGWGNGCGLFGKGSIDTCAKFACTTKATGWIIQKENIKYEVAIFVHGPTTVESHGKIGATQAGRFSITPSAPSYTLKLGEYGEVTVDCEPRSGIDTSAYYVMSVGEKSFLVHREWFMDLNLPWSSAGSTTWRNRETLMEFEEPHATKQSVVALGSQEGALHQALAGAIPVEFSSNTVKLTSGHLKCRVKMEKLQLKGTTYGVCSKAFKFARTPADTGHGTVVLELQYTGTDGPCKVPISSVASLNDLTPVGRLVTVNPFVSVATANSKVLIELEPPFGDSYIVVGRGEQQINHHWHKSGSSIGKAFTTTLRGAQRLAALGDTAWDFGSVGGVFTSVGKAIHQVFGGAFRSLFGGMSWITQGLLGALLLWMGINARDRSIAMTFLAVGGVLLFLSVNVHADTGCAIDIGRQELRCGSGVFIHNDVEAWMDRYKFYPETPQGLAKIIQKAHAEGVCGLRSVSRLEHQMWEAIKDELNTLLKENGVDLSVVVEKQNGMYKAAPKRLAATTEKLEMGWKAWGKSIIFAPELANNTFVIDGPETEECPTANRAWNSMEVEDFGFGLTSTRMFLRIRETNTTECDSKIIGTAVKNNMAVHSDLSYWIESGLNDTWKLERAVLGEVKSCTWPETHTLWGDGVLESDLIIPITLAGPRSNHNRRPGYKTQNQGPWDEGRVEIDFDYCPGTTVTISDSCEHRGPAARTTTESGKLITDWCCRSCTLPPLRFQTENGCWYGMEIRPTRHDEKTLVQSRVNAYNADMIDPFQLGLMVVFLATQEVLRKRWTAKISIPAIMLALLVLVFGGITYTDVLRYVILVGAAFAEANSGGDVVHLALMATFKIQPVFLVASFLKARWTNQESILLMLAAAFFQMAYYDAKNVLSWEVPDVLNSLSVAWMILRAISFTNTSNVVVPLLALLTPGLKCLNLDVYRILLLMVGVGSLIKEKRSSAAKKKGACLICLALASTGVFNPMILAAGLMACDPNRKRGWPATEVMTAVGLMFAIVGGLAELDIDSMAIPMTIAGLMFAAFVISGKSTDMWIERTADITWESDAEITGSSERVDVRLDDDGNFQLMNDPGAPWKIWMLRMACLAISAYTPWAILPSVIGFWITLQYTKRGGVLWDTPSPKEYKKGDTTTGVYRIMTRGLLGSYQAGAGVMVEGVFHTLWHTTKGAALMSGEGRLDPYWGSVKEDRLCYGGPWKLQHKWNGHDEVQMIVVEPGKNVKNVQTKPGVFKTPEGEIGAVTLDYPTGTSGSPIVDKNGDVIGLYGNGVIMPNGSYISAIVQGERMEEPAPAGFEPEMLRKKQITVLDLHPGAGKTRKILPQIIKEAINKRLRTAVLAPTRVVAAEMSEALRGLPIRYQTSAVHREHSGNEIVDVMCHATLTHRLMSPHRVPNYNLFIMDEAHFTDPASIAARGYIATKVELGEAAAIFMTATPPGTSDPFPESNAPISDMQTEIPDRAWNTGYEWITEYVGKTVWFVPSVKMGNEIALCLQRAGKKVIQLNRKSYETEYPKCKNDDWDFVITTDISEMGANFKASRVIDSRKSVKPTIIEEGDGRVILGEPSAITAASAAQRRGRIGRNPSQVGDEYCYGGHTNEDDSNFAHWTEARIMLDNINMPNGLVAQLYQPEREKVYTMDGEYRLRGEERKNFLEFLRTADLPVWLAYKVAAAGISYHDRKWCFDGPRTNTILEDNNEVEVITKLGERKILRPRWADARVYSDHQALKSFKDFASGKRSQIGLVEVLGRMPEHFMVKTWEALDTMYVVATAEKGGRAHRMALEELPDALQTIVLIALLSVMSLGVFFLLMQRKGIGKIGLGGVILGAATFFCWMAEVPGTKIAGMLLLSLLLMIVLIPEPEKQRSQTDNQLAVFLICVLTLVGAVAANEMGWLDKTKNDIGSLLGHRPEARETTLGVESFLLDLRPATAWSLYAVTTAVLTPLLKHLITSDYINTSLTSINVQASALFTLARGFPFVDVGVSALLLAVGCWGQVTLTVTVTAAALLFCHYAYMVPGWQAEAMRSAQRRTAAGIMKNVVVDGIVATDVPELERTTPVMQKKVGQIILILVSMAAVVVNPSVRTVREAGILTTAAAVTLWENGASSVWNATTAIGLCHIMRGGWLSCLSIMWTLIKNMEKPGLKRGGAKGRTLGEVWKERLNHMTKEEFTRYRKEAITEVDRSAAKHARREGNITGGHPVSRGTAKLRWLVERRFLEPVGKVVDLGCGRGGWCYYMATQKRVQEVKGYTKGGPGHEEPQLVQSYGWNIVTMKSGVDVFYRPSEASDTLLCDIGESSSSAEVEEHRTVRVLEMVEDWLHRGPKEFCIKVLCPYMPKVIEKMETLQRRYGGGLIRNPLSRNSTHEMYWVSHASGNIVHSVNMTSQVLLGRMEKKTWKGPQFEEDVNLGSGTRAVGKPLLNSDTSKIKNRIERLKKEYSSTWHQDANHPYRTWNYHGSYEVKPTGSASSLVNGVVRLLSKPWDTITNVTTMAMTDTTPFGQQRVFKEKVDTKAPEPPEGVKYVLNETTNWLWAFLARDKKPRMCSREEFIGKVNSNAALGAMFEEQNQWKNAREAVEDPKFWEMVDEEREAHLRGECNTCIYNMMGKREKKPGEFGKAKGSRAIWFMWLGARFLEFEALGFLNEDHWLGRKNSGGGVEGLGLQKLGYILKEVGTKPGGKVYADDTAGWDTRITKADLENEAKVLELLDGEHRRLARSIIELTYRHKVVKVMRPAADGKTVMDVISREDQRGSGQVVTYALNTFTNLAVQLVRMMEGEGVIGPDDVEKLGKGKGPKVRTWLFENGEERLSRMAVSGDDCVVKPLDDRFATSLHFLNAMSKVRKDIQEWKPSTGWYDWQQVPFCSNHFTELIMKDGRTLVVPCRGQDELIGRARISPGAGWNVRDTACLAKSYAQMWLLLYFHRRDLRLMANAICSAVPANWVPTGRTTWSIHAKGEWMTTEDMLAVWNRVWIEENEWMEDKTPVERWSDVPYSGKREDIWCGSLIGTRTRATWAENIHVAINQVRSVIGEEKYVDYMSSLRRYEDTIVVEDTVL

Row | Structure (SMILES) | inhibition [1] [%] | IC50 [2] [µM] | inhibition [3] [%] | IC50 [4] [µM] | inhibition [5] [%] | inhibition [6] [%] | CC50 [7] [µM] | Stability [8] | remaining at 2 h [9] [%] | Stability [10] | Stability [11] | Ki [12] [µM] | Ki [13] [µM]
1 | CN([C@@H](Cc1ccc(C(=N)N)cc1)C(=O)N[C@@H](CCCCN)C(=O)N[C@@H](C(N)=O)c1ccc(OCc2ccc(C(F)(F)F)cc2)cc1)S(=O)(=O)c1ccccc1 | 99.2 | 0.12 | 80.4 | 13.9 | 15.8 | 18.3 | 75.3 |  |  |  |  |  | 
2 | CN([C@@H](Cc1ccc(C(=N)N)cc1)C(=O)N[C@@H](CCCCN)C(=O)N[C@@H](C(N)=O)c1ccc(O)cc1)S(=O)(=O)c1ccccc1 | 101 | 0.44 | 33.7 |  | 30.3 | 14.7 |  |  |  |  |  |  | 
3 | CC(C)c1cc(C(C)C)c(S(=O)(=O)N[C@@H](CCCNC(=N)N)C(=O)N[C@@H](CCCCN)C(=O)N[C@@H](C(N)=O)c2ccccc2)c(C(C)C)c1 | 20.2 |  | < 10 |  | < 10 | < 10 | > 50 |  |  |  |  |  | 
4 | N=C(N)NCCC[C@H](NS(=O)(=O)c1ccc(Cl)cc1)C(=O)N[C@@H](CCCCN)C(=O)N[C@@H](C(N)=O)c1ccccc1 | 44.5 |  | 15.5 |  | < 10 | < 10 | > 50 |  |  |  |  |  | 
5 | N=C(N)NCCC[C@H](NS(=O)(=O)c1ccccc1)C(=O)N[C@@H](CCCCN)C(=O)N[C@@H](C(N)=O)c1ccccc1 | 44.3 |  | 22.3 |  | < 10 | < 10 | > 50 | Stable |  |  |  |  | 
6 | CN([C@@H](Cc1ccc(C(=N)N)cc1)C(=O)N[C@@H](CCCCN)C(=O)N[C@H](C(N)=O)c1ccc(OCc2ccccc2)cc1)S(=O)(=O)c1ccccc1 | 102 | 0.2 | 20.2 |  | 23.4 | 34.3 |  |  |  |  |  |  | 
7 | Cc1ccc(S(=O)(=O)N[C@@H](CCCNC(=N)N)C(=O)N[C@@H](CCCCN)C(=O)N[C@@H](C(N)=O)c2ccccc2)cc1 | 50.5 |  | 17.7 |  | < 10 | 21.6 | > 50 |  |  |  |  |  | 
8 | N=C(N)NCCC[C@H](NS(=O)(=O)C1CCCCC1)C(=O)N[C@@H](CCCCN)C(=O)N[C@@H](C(N)=O)c1ccccc1 | 65.2 |  | < 10 |  | < 10 | 17.4 | > 50 |  |  |  |  |  | 
9 | CN([C@@H](Cc1ccc(/C(N)=N/O)cc1)C(=O)N[C@@H](CCCCN)C(=O)N[C@@H](C(N)=O)c1ccccc1)S(=O)(=O)c1ccccc1 | 58.5 |  | < 10 |  | < 10 | < 10 | > 50 |  |  |  |  |  | 
10 | N=C(N)NCCC[C@H](NS(=O)(=O)c1ccc([N+](=O)[O-])cc1)C(=O)N[C@@H](CCCCN)C(=O)N[C@@H](C(N)=O)c1ccccc1 | 24.7 |  | 18.4 |  | < 10 | 30.6 | > 50 |  |  |  |  |  | 
11 | N=C(N)NCCC[C@H](NC(=O)c1ccccc1)C(=O)N[C@@H](CCCCN)C(=O)N[C@@H](C(N)=O)c1ccc(OCc2ccccc2)cc1 |  |  |  |  | < 10 |  | > 50 |  |  |  |  |  | 
12 | CN([C@@H](Cc1ccc(C(=N)N)cc1)C(=O)N[C@@H](CCCCN)C(=O)N[C@@H](C(N)=O)c1ccccc1)S(=O)(=O)c1ccccc1 | 98.9 | 0.21 | 48.7 |  | 19.6 | 19.2 | > 200 |  | 100 | Stable | Stable |  | 
13 | Cc1ccc(S(=O)(=O)N(C)[C@@H](CCCNC(=N)N)C(=O)N[C@@H](CCCCN)C(=O)N[C@@H](C(N)=O)c2ccccc2)cc1 | 75.8 | 17.9 | < 10 |  | < 10 | 20.3 | > 50 |  |  |  |  |  | 
14 | CN(C)C(=O)COC(=O)Cc1ccc(OC(=O)c2ccc(NC(=N)N)cc2)cc1 |  |  |  |  | 99 |  |  |  |  |  |  |  | 
15 | CN([C@@H](Cc1ccc(C(=N)N)cc1)C(=O)N[C@@H](CCCCN)C(=O)N[C@@H](C(N)=O)c1ccc(OCc2ccccc2)cc1)S(=O)(=O)c1ccccc1 | 99 | 0.11 | 68.9 | 22.2 | 22.9 | 22 | > 200 |  |  |  |  | 0.092 | 
16 | Cc1ccc(S(=O)(=O)N(C)[C@@H](Cc2ccc(NC(=N)N)cc2)C(=O)N[C@@H](CCCCN)C(=O)N[C@@H](C(N)=O)c2ccccc2)cc1 | 95 | 1.63 | < 10 |  | < 10 | 19.9 | > 50 |  |  |  |  |  | 
17 | Cc1ccc(S(=O)(=O)N(C)[C@@H](Cc2cccc(N)c2)C(=O)N[C@@H](CCCCN)C(=O)N[C@@H](C(N)=O)c2ccccc2)cc1 | 23.2 |  | < 10 |  | < 10 | < 10 |  |  |  |  |  |  | 
18 | CN([C@@H](Cc1cccc(N)c1)C(=O)N[C@@H](CCCCN)C(=O)N[C@@H](C(N)=O)c1ccccc1)S(=O)(=O)c1ccccc1 | 20.4 |  | < 10 |  | < 10 | < 10 |  |  |  |  |  |  | 
19 | CN([C@@H](CCCNC(=N)N)C(=O)N[C@@H](CCCCN)C(=O)N[C@@H](C(N)=O)c1ccccc1)S(=O)(=O)c1ccc(Cl)cc1 | 75.1 | 19.4 | < 10 |  | < 10 | 13 |  |  |  |  |  |  | 
20 | CN([C@@H](Cc1ccc(C(=N)N)cc1)C(=O)N[C@@H](CCCCN)C(=O)N[C@@H](C(N)=O)c1ccc(OCc2ccc(Cl)c(Cl)c2)cc1)S(=O)(=O)c1ccccc1 | 98.6 | 0.089 | 84.8 | 12.1 | 15.8 | 11 | 45.3 |  |  |  |  | 0.078 | 5.1
21 | CN(C)c1cccc2c(S(=O)(=O)N[C@@H](CCCNC(=N)N)C(=O)N[C@@H](CCCCN)C(=O)N[C@@H](C(N)=O)c3ccccc3)cccc12 | 35.3 |  | < 10 |  | 2.3 | 10.7 | > 50 |  |  |  |  |  | 
22 | CN([C@@H](Cc1ccc(NC(=N)N)cc1)C(=O)N[C@@H](CCCCN)C(=O)N[C@@H](C(N)=O)c1ccccc1)S(=O)(=O)c1ccccc1 | 97.6 | 2.72 | 14.9 |  | < 10 | 17.1 | > 50 | Stable |  | Stable | Stable |  | 
23 | CC[C@H](NC(=O)[C@H](Cc1cccc(NC(=N)N)c1)N(C)S(=O)(=O)c1ccc(C)cc1)C(=O)N[C@@H](C(N)=O)c1ccccc1 | 74.3 | 18.9 | < 10 |  | 18.1 | < 10 |  |  |  |  |  |  | 
24 | CN([C@@H](CCCNC(=N)N)C(=O)N[C@@H](CCCCN)C(=O)N[C@H](C(N)=O)c1ccccc1)S(=O)(=O)c1ccccc1 | 75.3 | 17.6 | < 10 |  | < 10 | < 10 | > 50 |  |  |  |  |  | 
25 | N=C(N)Nc1ccc(C[C@H](NS(=O)(=O)c2ccccc2)C(=O)N[C@@H](CCCCN)C(=O)N[C@@H](C(N)=O)c2ccccc2)cc1 | 52.6 |  | < 10 |  | < 10 | < 10 | > 50 | Stable |  | Stable | Stable |  | 
26 | CN([C@@H](CCCNC(=N)N)C(=O)N[C@@H](CCCCN)C(=O)N[C@@H](C(N)=O)c1ccccc1)S(=O)(=O)c1ccccc1 | 80.6 | 11 | < 10 |  | < 10 | < 10 | > 50 | Stable |  | Stable | Stable |  | 
27 | CN([C@@H](Cc1cccc(NC(=N)N)c1)C(=O)N[C@@H](CCCCN)C(=O)N[C@@H](C(N)=O)c1ccccc1)S(=O)(=O)c1ccccc1 | 78.6 | 13.2 | 10.1 |  | 30.2 | < 10 |  |  |  |  |  |  | 
28 | Cc1cc(C)c(S(=O)(=O)N[C@@H](CCCNC(=N)N)C(=O)N[C@@H](CCCCN)C(=O)N[C@@H](C(N)=O)c2ccccc2)c(C)c1 | 35.9 |  | < 10 |  | < 10 | < 10 | > 50 |  |  |  |  |  | 
